This note sets out measurements from patent publication US10188617B2, “Modulation of cellular DNA repair activity to intercept malignancy” (THE BOARD OF TRUSTEES OF THE LELAND STANFORD JUNIOR …, priority 2013, dated 2019).

Each structure is given as a SMILES string. pEC50: −log10 of the molar value.

One data set concerns SUM149PT cells. Kind of data set: Hoechst live-cell staining (cell number). In kind it is cell-based, human. As to conditions: concentrations up to 40 μM. As for the experimental part: (§1) Cells were treated with acetohexamide for 48 hours in quadruplicate and then incubated with 2 μg/ml Hoechst 33358 live-cell dye for 20 minutes. Four representative fields for each replicate were imaged by the ImageXpress 5000A high-content imager (Molecular Devices). Nuclei were counted using MetaMorph® software (Molecular Devices) and expressed as a percentage relative to the vehicle control (DMSO).

The subject of data set [1] is other BER-defective breast cancer cell lines. In words: Hoechst live-cell staining (cell number). In kind it is cell-based, human. As to conditions: 20 μM. As for the experimental part:
as §1

Data set [2] has as its system H2O2-induced ODD in breast cancer cell lines with defective BER. In words: Alkaline comet assay modified for detection of oxidative lesions (FPG). The format is cell-based, human. As to conditions: pretreatment, compared to undamaged control. As for the experimental part:
(§2) Cells were collected and embedded into CometAssay® LM Agarose (Trevigen) and placed on CometAssay® HT Slides (Trevigen) in duplicate. Cells were lysed at 4° C. in Lysis Buffer (Trevigen) for >24 hours. Slides were treated with or without FPG enzyme at 37° C. and 5% CO2 for 45 minutes to nick DNA at sites of ODD and then subjected to alkaline treatment at 4° C. for 40 minutes to denature DNA. Slides underwent electrophoresis under alkaline conditions to separate intact from damaged DNA. Following neutralization, DNA was stained using SYBR® green I and visualized as a comet in shape by fluorescent microscopy under 20× objective. […] CometScore software was used to quantify % DNA in Tail. Strand breaks were determined by % DNA in Tail in FPG-minus samples. ODD was determined by subtracting % DNA in Tail in FPG-minus samples from % DNA in Tail in FPG-plus samples.

Data set [3] deals with BER-defective and BER-proficient cells. In words: Alkaline comet assay, strand breaks. In kind it is cell-based. As to conditions: compared to the vehicle control; H2O2 positive control. As for the experimental part: as §2
In data set [4] the test system is BER of ODD in SUM149PT cells. Kind of data set: High-throughput chemical screen with cell-based DNA repair assay (oxidatively damaged GFP reporter, host-cell reactivation).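 Also: SUM149PT cells pretreated 24 h with compound, then given photodynamically oxidized adenoviral GFP reporter, 24 h host-cell reactivation, GFP read as repair, undamaged reporter positive and damaged reporter negative control.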
The test system of data set [5] is 8oxoG lesions in breast cancer cell lines with defective BER. In words: 8oxoG lesions (OxyFlow Kit). As to conditions: time-dependent. The format is cell-based, human. As for the experimental part:
Cells were analyzed using the OxyFlow™ Kit (Hemogenix) according to the manufacturer's instructions.

Data set [6] deals with SUM149PT and other cell lines. In words: MTT assay (cell viability). The format is cell-based, human. As to conditions: concentrations up to 1 mM, 72 hours.
Data set [7] concerns BER of ODD in SUM149 cells (mutant BRCA1, BER-defective). In words: DNA repair assay (oxidatively damaged GFP reporter gene), follow-up. In kind it is cell-based, human. As to conditions: for BER: 20 μM, SUM149, vs vehicle; for repair of oxidatively damaged GFP reporter gene, dose-response: SUM149PT cells, 24 hours treatment. As for the experimental part:
(§3) Human breast cancer cell lines that were deficient in BER (HCC1143, MDAMB468, HCC1937, and SUM149) or proficient in BER (BT474 and MCF7) were cultured according to American Type Culture Collection guidelines, with the exception of SUM149, which was cultured according to Asterand plc guidelines. Brca1^+/+ and Brca1^-/- mouse mammary epithelial […] previously described. Cells were treated with DMSO (vehicle control) or acetohexamide or benserazide as indicated for 24 hours at 37° C. and 5% CO2. The DNA repair assay was carried out as described in the examples below. Where indicated, BER (base excision mode of DNA repair) activity was expressed relative to the control (DMSO).
In general terms: In a reporter assay the amount or activity of a reporter protein is the signal.

In data set [8] the test system is BER of ODD in MCF7 cells (wild-type BRCA1, BER-proficient). Described as above. The format is cell-based, human. The following applies: 20 μM, MCF7, vs vehicle. The protocol:
as §3

Data set [9] deals with BER of ODD in HCC1937 cells (mutant BRCA1). Described as above. The following applies: 20 μM, HCC1937, vs vehicle. In kind it is cell-based, human. The protocol: as §3
Data set [10] concerns BER of ODD in BT474 cells (wild-type BRCA1). The data set is described as above. The format is cell-based, human. The following applies: 20 μM, BT474, vs vehicle. The protocol:
as §3

Data set [11] deals with BRCA1-mutant/deficient cells. In words: Soft agar colony formation assay (in vitro tumorigenesis). In kind it is cell-based, human. As to conditions: 20 μM benserazide vs 1 μM tamoxifen and vehicle. As for the experimental part: BRCA1 wild-type (MCF7) and mutant (HCC1937) cells (FIG. 14A) as well as MCF7 cells stably transduced with shRNA to BRCA1 or non-targeting control (FIG. 14B) were treated with vehicle control, 20 μM benserazide, or 1 μM tamoxifen and subjected to the soft agar colony formation assay, i.e. the standard assay for in vitro tumorigenesis. Colony formation represents tumorigenic potential. Tamoxifen is the current FDA-approved chemoprevention agent for breast cancer and a therapeutically-equivalent dose was used for comparison.

For a further data set, the system named is HCC1937 cells. In words: Mouse xenograft model of in vivo tumorigenesis (chemoprevention). The protocol: For in vivo tumorigenesis, we utilized a mouse xenograft model that began treatment with the DNA repair-activating agent 24 hours prior to inoculation of HCC1937 cells into the mammary fat pad. Treatment with vehicle control, 50 mg/kg benserazide, or 250 mg/kg benserazide continued daily for up to 60 days while monitoring for tumor formation by palpitation. After the 60 days (i.e. study endpoint), serum was collected for analysis of 8oxodG levels, tumors (if present) were excised and weighed, and anatomy was analyzed for metastasis.

For data set [12], the system named is BRCA1 wild-type (MCF7) and mutant (HCC1937) cells. In words: Trypan blue exclusion assay (cell viability). The format is cell-based, human. The following applies: treated simultaneously with the colony formation assay. An excerpt: In FIG. 14C, BRCA1 wild-type (MCF7) and mutant (HCC1937) cells were simultaneously treated and then analyzed for cell viability by the trypan blue exclusion assay.

The mark [13] stands for this setting: study endpoint 60 days, dose response.

Regarding `CC(=O)c1ccc(S(=O)(=O)NC(=O)NC2CCCCC2)cc1` [Acetohexamide], the “number of cells (Hoechst 33342 staining)” value in the data set on SUM149PT cells is “did not affect the number of SUM149PT cells”. For the same molecule, the “cell number (Hoechst 33342 staining)” value in data set [1] is “nor did it affect the cell number”. Besides, the “H2O2-induced ODD” value in data set [2] is “decreased H2O2-induced ODD to levels similar to those of the undamaged control”. In addition, the DNA strand breaks entry in data set [3] is “did not significantly induce DNA strand breaks”. Further, the pEC50 (usually the EC50 on a negative log10 scale, so that one unit is a factor of ten) in [4] (read-out: EC50 (image analysis), dose-response increase in GFP expression by imaging, 20 μM to 0.3 μM two-fold dilutions) was 4.37. This molecule also displayed a Hoechst-positive cells in data set [4] (screening data by imaging, compared to negative control) of 87.8%. In addition, the “Priority score (summed priority score)” value in [4] (sum of assigned priority scores, range 1-10, 10 = highest priority) was determined as 7. The “basal levels of 8oxoG lesions” value in data set [5] is recorded as “decreased basal levels of 8oxoG lesions”. The “cell viability (MTT)” value in [6] is “did not affect the cell viability”. For the same molecule, the BER result in data set [7] was “statistically significant increase in BER”; in [8], “no effect on BER”; in data set [9], “statistically significant increase in BER”; in data set [10], “no effect on BER”. The “repair of oxidatively damaged GFP reporter gene, dose-response” value in [7] was “dose-response increase in repair of an oxidatively damaged GFP reporter gene”. Also, the “relative BER activity” value in [7] (relative to the control (DMSO)) came to 1.68±0.13.

As to `NC(CO)C(=O)NNCc1ccc(O)c(O)c1O` (stereo not shown) [benserazide, 2-amino-3-hydroxy-N′-[(2,3,4-trihydroxyphenyl)methyl]propanehydrazide], the “in vitro tumorigenic potential (colony formation)” value in [11] was “prevented in vitro tumorigenesis”; in data set [11] (listed as Benserazide), “superior to tamoxifen at reducing in vitro tumorigenic potential”. For the same molecule, in the data set with HCC1937 cells (50 or 250 mg/kg daily up to 60 days), the “tumor formation over time” value is “delayed tumor formation over time”. In addition, the “percentage of tumor-free mice” value in the data set with HCC1937 cells (50 or 250 mg/kg daily up to 60 days, started 24 hours prior to inoculation) is on record as “increased the percentage of tumor-free mice in a dose-response manner”. Further, in the data set on HCC1937 cells (both concentrations (50 and 250 mg/kg), unlike vehicle control), the metastasis entry is “prevented metastasis”. In addition, the “serum levels of 8oxodG” value in the data set with HCC1937 cells (setting [13]) is “increase serum levels of 8oxodG”. In the data set with HCC1937 cells (setting [13]), the tumor weights entry was “decrease tumor weights”. In [12], the “cell viability (trypan blue exclusion)” value is recorded as “not due to a decrease in cell viability”. The BER result was “statistically significant increase in BER” in data set [7], “no effect on BER” in [8], “statistically significant increase in BER” in data set [9] and “no effect on BER” in data set [10]. In addition, in data set [7], the “repair of oxidatively damaged GFP reporter gene, dose-response” value is given as “dose-response increase in repair of an oxidatively-damaged GFP reporter gene”.
